Test results: US5023359A, “Use of organic salts of copper for the treatment of honeybee's parasitic diseases” (priority 1990, dated 1991)
Entries after “also recorded” stand apart in the source; their conditions may differ.

Experiments:
honeybees [1] = test: Biological activity / metabolism of honeybees and productivity of hives; conditions: in vivo
honeybees [2] = test: Appetency of the honeybees (consumption of syrup in small cases, batches of 100 honeybees); assay type: in vivo; conditions: for Appetency, absolute value / Appetency, 1/1 COPPER GLUCONATE: with pollen, mean ± SD; for Appetency, absolute value: pure sugar syrup 21.13±6.31; for Appetency, RELATIVE VALUES / PURE SUGAR SYRUP, AVERAGE / Appetency, RELATIVE VALUES / PURE SUGAR SYRUP, TEST 1 / Appetency, RELATIVE VALUES / PURE SUGAR SYRUP, TEST 2: relative to pure sugar syrup; for Appetency, RELATIVE VALUES / PURE SUGAR SYRUP, AVERAGE: average of tests; for Appetency, RELATIVE VALUES / PURE SUGAR SYRUP, TEST 1: test 1 (first concentration tested); for Appetency, RELATIVE VALUES / PURE SUGAR SYRUP, TEST 2: test 2 (second concentration tested); for Appetency, 1/1 COPPER GLUCONATE: 1/1 with copper gluconate
Source text: It should be noted that the pollen has been made available to the honeybees in a sufficient amount inside the small cases, without being admixed to the syrup. The determinations have been performed every day and the length of the vertical bars of the diagrams hereabove, are proportional to the deviation of the observed results. They evidence a clearly higher […] case of the utilization of the compounds of this invention. […] The results of these tests are gathered in Table 7 hereinafter in which the figures correspond to measures performed on honeybees placed in small cases, having pollen to their disposal, and are means expressed in microliters per honeybee and per day for N countings.

Solubility in water = conditions: for water solubility: 20° C.
honeybees [3] = test: Phagoinhibitive action on food intake by the honeybees (small cases, 100 honeybees, syrup with copper sulphate); assay type: in vivo; conditions: FIG. 1; absorption in ml/bee/day vs g/l copper sulphate
Source text: The obtained results as shown under FIG. 1 have been obtained from studies carried out in the laboratory, on batches of 100 honeybees each, located in small coops called small cases (logettes) in the absence of queen bees. The feeding made available to the honeybees, is placed in a graduated tube which allows the measurement of the ingested amount every day. The experiments have been carried out simultaneously with various small cases each receiving for the feeding of the honeybees a syrup of sucrose at 2 kg for 1 l water (i.e. 66% weight/weight) containing variable amounts of copper sulphate.

honeybees [4] = test: Lethality / noxiousness for the honeybees; conditions: 6.75 l of syrup per hive, 0.02 to 0.5 g/l copper gluconate
Trehalases = test: Activity of trehalases in the hemolymph of honeybees after ingestion; assay type: in vivo; conditions: FIGS. 8A-8D, 9A-9B, 10B, listed as copper glyconate
Source text: (§1) These diagrams evidence the action of copper glyconate on the glycosemia of the honeybees after ingestion of increasing doses of this product.
(§2) FIG. 9A corresponds to experiments performed without administration of an inhibitor of trehalases
(§3) FIG. 9B is with administration of such an inhibitor.
(§4) FIG. 10A further evidences the variation of the glucosemia in the honeybees following the ingestion of copper glyconate.

honeybees [5] = conditions: in vivo
Varroa jacobsoni = test: Action against Varroa jacobsoni in full-size hives: counting of fallen/remaining Varroas, efficiency; assay type: in vivo; conditions: for FALL OF THE VARROAS: 4 hives, mean ± SD
Method: Each hive was provided at its lower part with a plastic plate coated with a consistent grease. Each day at the same time, the plate was discarded and the counting of the Varroas fallen on the plate, was carried out. A grid surmounting this plate avoid that the honeybees may spontaneously proceed with the discharge of the Varroas.
The results shown in FIG. 2 have been obtained following experiments performed at full size in hives containing from 20,000 to 50,000 honeybees.
2°--The efficiency of the treatment has been defined as the ratio between the number of Varroas subsiding in the various colonies of an apiary after treatment by solutions at various concentrations, and the number of Varroas contained in the control hives, these two figures have been measured after treatment with Amitraze.
This experiment has been carried out in a series of 14 hives and the result thereof are compiled in the Table 3 figuring herein after.
These experiments allow to obtain the results of Table 3 above, and were carried out in full size on a set of 14 hives.
Measurements of the falls of the Varroas have been performed, at first, every day then every three days starting from the initiation of the delivery of the syrup.
To this end, a plate coated with a consistent grease was arranged at the bottom of each hive and protected with a grid as above-mentioned, in order to allow the counting of the Varroas. The fall begins to be significative in relation to the control hives which have only been given pure sugar syrup, after absorption by the honeybees of 3 liters of syrup per hive in 10 days.
The counting of the remaining Varroas has been performed 2 days after the last delivery of syrup while submitting each hive to a treatment of shock by means of an acaricide (in these circumstances the marketed composition sold under the Tread Name AMITRAZE).
The averages and the standard deviations have been calculated for the number of performed measures corresponding to the number of hives, this figure being mentioned between hyphens following the figures of the third column in Table 3.

honeybees [6] = test: Acceptance of treated syrup by honeybees in full-size hives; assay type: in vivo; conditions: syrup of sucrose 66% w/w with copper gluconate
[7] = tested on: glycosemia in the honeybees; test: Glycosemia / glucose in the hemolymph of honeybees after ingestion; assay type: in vivo; conditions: FIGS. 8A-8D, 9A-9B, 10A
Source text: as §1, §2, §3, §4

| Compound | supplemental effects: production of honey, activity of cleaning the hives (honeybees [1]) | Appetency, RELATIVE VALUES / PURE SUGAR SYRUP, AVERAGE (honeybees [2]) | Appetency, RELATIVE VALUES / PURE SUGAR SYRUP, TEST 1 (honeybees [2]) | Appetency, RELATIVE VALUES / PURE SUGAR SYRUP, TEST 2 (honeybees [2]) | Appetency, absolute value (honeybees [2]; 0,44 M.M.) | Appetency, absolute value (honeybees [2]; 1,1 M.M.) | Appetency, 1/1 COPPER GLUCONATE (honeybees [2]) | other results |
| --- | --- | --- | --- | --- | --- | --- | --- | --- |
| Copper gluconate/glutamate | A similar effect has been shown |  |  |  |  |  |  |  |
| Copper 1-aspartate |  | 55,1% | 76,5% | 69,4% |  |  |  | Appetency, absolute value (honeybees [2]; 0,61 M.M.): 17,96 ± 7,20 microliters per honeybee and p; Appetency, absolute value (honeybees [2]; 1,54 M.M.): 14,68 ± 5,40 microliters per honeybee and p; Appetency, absolute value (honeybees [2]; 2,4 M.M.): 12,49 ± 5,11 microliters per honeybee and p |
| Copper Asparaginate |  | 65,0% | 73,2% | 56,3% | 15,48 ± 4,32 microliters per honeybee and p | 11,97 ± 3,34 microliters per honeybee and p | 12,21 ± 4,29 microliters per honeybee and p | water solubility (Solubility in water): 0,5% |
| Copper 1-glutamate |  | 77,6% | 76,5% | 78,7% | 16,18 ± 4,66 microliters per honeybee and p | 16,64 ± 7,97 microliters per honeybee and p | 11,56 ± 6,32 microliters per honeybee and p |  |
| COPPER CITRATE |  | 64,75% | 69,5% | 60,0% | 14,71 ± 4,25 microliters per honeybee and p | 12,67 ± 3,96 microliters per honeybee and p | 12,67 ± 3,96 microliters per honeybee and p |  |
| Copper glucoheptonate | A similar effect has been shown | 71,6% | 74,2% | 69,0% | 15,68 ± 2,35 microliters per honeybee and p | 14,58 ± 3,16 microliters per honeybee and p | 14,90 ± 3,64 microliters per honeybee and p | water solubility (in words) (Solubility in water): very soluble |
| Copper gluconate/glucoheptonate | A similar effect has been shown |  |  |  |  |  |  |  |
| CC(O)C(=O)[O-].CC(O)C(=O)[O-].[Cu+2] (stereo not drawn) [Copper lactate] |  | 73,6% | 72,4% | 73,8% | 15,30 ± 4,24 microliters per honeybee and p | 15,60 ± 4,34 microliters per honeybee and p | 10,95 ± 3,54 microliters per honeybee and p |  |
| NCC(=O)[O-].NCC(=O)[O-].[Cu+2] [Copper glycinate] |  | 75,85% | 78,0% | 73,7% | 16,65 ± 5,01 microliters per honeybee and p | 15,5 ± 5,03 microliters per honeybee and p | 14,30 ± 3,52 microliters per honeybee and p |  |
| Copper leucinate |  | 67,8% | 74,0% | 61,6% | 15,83 ± 4,53 microliters per honeybee and p | 13,02 ± 2,42 microliters per honeybee and p | 13,02 ± 2,42 microliters per honeybee and p | water solubility (Solubility in water): 1% |
| O=S(=O)([O-])[O-].[Cu+2] [copper sulphate] |  |  |  |  |  |  |  | phagoinhibitive (anorectic) action on food intake (honeybees [3]): phagoinhibitive action |
| Copper isoleucinate |  | 71,55% | 78,9% | 64,2% |  |  |  | water solubility (Solubility in water): 1%; Appetency, absolute value (honeybees [2]; 0,61 M.M.): 16,69 ± 5,03 microliters per honeybee and p; Appetency, absolute value (honeybees [2]; 1,54 M.M.): 13,57 ± 5,77 microliters per honeybee and p; Appetency, absolute value (honeybees [2]; 2,4 M.M.): 13,79 ± 5,73 microliters per honeybee and p |
| Copper gluconate | increases the production of honey |  |  |  | 22,3 ± 2,5 microliters per honeybee and p | 21,2 ± 2,6 microliters per honeybee and p |  | percentage of lethality in the honeybees compared to controls (honeybees [4]): no increase in the percentage of lethality in the honeybees; activity / concentration of trehalases in the hemolymph (Trehalases): increase of the activity of the Trehalases; also recorded: increase in the concentration of glucose and trehalases in the hemolymph; supplemental effects: production of honey, activity of cleaning the hives (honeybees [1]; listed as copper glyconate): increase in the activity of cleaning the hives; storage of copper inside the body of the honeybees (honeybees [5]): does not incur any storage of copper inside the body of the honeybees; FALL OF THE VARROAS (Varroa jacobsoni; 0,2 g/l copper gluconate in syrup): 165,5 ± 84,1; FALL OF THE VARROAS (Varroa jacobsoni; 0,5 g/l copper gluconate in syrup): 207 ± 172; FALL OF THE VARROAS (Varroa jacobsoni; 1 g/l copper gluconate in syrup): 109 ± 141; destroying of the Varroas (in words) (Varroa jacobsoni; in vivo): efficient even at low doses; syrup absorbed per hive when fall of Varroas begins to be significative vs control hives (Varroa jacobsoni; per hive, in 10 days): 3 L; appetency of the honeybees (in words) (honeybees [2]; sucrose syrup 66% w/w, FIGS. 7A-7C, comparison with copper sulphate): great appentency of the honeybees; ingestion of the syrup by the honeybees in hives (honeybees [6]): The whole amount of syrup made available to the honeybees was absorbed every day; also recorded: totally ingested; glycosemia / concentration of glucose in the hemolymph of the honeybees [7]: a momentaneous and significative increase of the glycosemia in the honeybees; glycosemia / concentration of glucose in the hemolymph of the honeybees ([7]; listed as copper glyconate): increase in the concentration of glucose |
